{
  "source": "patent US20130089603A1",
  "about": "“COMPOSITIONS AND METHODS FOR TREATING OBESITY AND OBESITY-RELATED CONDITIONS” (CHELATEXX LLC, priority 2006, published 2013)",
  "key": {"[1]": {"details": "clinical trials on over 2800 patients for one or two years; cited from earlier work"}, "pancreatic lipase": {"biological_target": "T1, pancreatic lipase (Homo sapiens, UniProt P16233)", "T1 sequence (P16233 17-465)": "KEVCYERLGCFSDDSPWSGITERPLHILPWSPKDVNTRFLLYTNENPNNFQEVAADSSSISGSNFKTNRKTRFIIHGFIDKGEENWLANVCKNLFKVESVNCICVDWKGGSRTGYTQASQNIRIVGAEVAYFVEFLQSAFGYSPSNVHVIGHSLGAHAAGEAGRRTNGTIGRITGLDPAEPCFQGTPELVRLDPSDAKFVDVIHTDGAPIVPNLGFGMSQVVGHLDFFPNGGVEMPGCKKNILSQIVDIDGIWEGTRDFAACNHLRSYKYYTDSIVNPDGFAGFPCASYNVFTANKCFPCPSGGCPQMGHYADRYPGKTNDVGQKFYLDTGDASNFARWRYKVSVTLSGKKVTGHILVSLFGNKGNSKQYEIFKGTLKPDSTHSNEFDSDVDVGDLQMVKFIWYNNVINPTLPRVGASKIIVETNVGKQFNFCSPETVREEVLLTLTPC", "experiment": "in vitro testing of lipase inhibitor effectiveness in presence of activated charcoal", "format": "biochemical", "details": "60 mg of orlistat with simethicone and 400 mg of porous activated charcoal (not enteric-coated)", "from_the_text": "While the embodiment described in the preceding paragraph has been proven effective in preventing Underwear Issues associated with lipase inhibitors, in vitro testing has shown that the effectiveness of the lipase inhibitor is decreased due to the fact that some of the lipase inhibitor is absorbed by the activated charcoal and is therefore not available for binding to pancreatic lipase. […] Rather, the pharmaceutical composition may be configured such that the lipase inhibitor and surfactant are released in the stomach, and the activated charcoal is not released until the small intestine. By doing so, the lipase inhibitor becomes irreversibly bound to the pancreatic lipase enzyme (about 25%) in the very first 10 centimeters of the small intestines (the duodenum), prior to release of the activated charcoal, thus ensuring that the activated charcoal will not interfere with the ability of the lipase inhibitor to inactivate pancreatic lipase. For this reason, the activated charcoal in some embodiments of the compositions and methods herein is enteric-coated in order to maintain the full efficacy of the lipase inhibitor. […] Therefore, by using an enteric coated porous activated charcoal, the small undigested fat, emulsified in the chyme by actions of the emulsifying agent, can be chelated by the released porous activated charcoal in the distal small bowel."}, "[2]": {"details": "cited from earlier work"}, "[3]": {"details": "cited from earlier work", "remark": "listed apart in the source"}, "[4]": {"details": "cited from earlier work", "remark": "listed apart in the source"}},
  "note": "Like-named read-outs stand apart in the source and are kept apart here.",
  "data": [
    {"smiles": "CCCCCCCCCCC[C@@H](C[C@@H]1OC(=O)[C@H]1CCCCCC)OC(=O)[C@H](CC(C)C)NC=O", "note": "[orlistat, tetrahydrolipstatin]", "values": [
      {"measurement": "Abdominal pain/discomfort (upper gastrointestinal adverse event)", "setting": "[1]", "value": 25.5, "unit": "%"},
      {"measurement": "Fatty/Oily stool (lower gastrointestinal adverse event)", "setting": "[1]", "value": 26.0, "unit": "%"},
      {"measurement": "Fecal incontinence (lower gastrointestinal adverse event)", "setting": "[1]", "value": 7.7, "unit": "%"},
      {"measurement": "Fecal urgency (lower gastrointestinal adverse event)", "setting": "[1]", "value": 22.1, "unit": "%"},
      {"measurement": "Flatus - with discharge (lower gastrointestinal adverse event)", "setting": "[1]", "value": 23.9, "unit": "%"},
      {"measurement": "Increased defecation (lower gastrointestinal adverse event)", "setting": "[1]", "value": 10.8, "unit": "%"},
      {"measurement": "Nausea (upper gastrointestinal adverse event)", "setting": "[1]", "value": 8.1, "unit": "%"},
      {"measurement": "Oily Evacuation (lower gastrointestinal adverse event)", "setting": "[1]", "value": 11.9, "unit": "%"},
      {"measurement": "Oily Spotting (lower gastrointestinal adverse event)", "setting": "[1]", "value": 26.6, "unit": "%"},
      {"measurement": "decrease in the effectiveness of the orlistat", "setting": "pancreatic lipase", "value": 30, "unit": "%"},
      {"measurement": "study participants with adverse events", "setting": "[2]; 60 mg of orlistat", "value": 89.1, "unit": "%"},
      {"measurement": "study participants with adverse events", "setting": "[2]; 120 mg of orlistat", "value": 91.4, "unit": "%"},
      {"measurement": "individuals reporting orlistat adverse events", "setting": "[3]; normal (25 grams of fat/meal) US diet", "value": "over 90%"},
      {"measurement": "individuals reporting orlistat adverse events", "setting": "[3]; rigid low fat diet", "value": "over 50%"},
      {"measurement": "ingested fat whose digestion and absorption is prevented", "setting": "[4]; 60 mg dose of orlistat (OTC)", "value": 25, "unit": "%"},
      {"measurement": "ingested fat whose digestion and absorption is prevented", "setting": "[4]; 120 mg dose of orlistat (prescription)", "value": 30, "unit": "%"},
      {"measurement": "ingested fat whose digestion and absorption is prevented", "setting": "[4]; dose not stated", "value": "25-35%"}
    ]}
  ]
}
